As a reminder, the pIC50 is the IC50 on a negative log10 scale, so that one unit is a factor of ten.

pIC50: −log10 of the molar value.

This assay deals with Serine/threonine-protein phosphatase PP1-alpha catalytic subunit (Homo sapiens) (UniProt P62136). Put plainly: PP1alpha phosphatase inhibitors, phosphorylase substrate – biochemical, radiolabel, dose response, powder samples, set 2, orthogonal assay for PP1 inhibitor probe project, late-stage follow-up (AID 652227). The conditions noted are these: purified PP1alpha, 32P/33P-phosphorylase dephosphorylation, scintillation.
Sequence of Serine/threonine-protein phosphatase PP1-alpha catalytic subunit (Homo sapiens) (P62136 whole entry, looked up): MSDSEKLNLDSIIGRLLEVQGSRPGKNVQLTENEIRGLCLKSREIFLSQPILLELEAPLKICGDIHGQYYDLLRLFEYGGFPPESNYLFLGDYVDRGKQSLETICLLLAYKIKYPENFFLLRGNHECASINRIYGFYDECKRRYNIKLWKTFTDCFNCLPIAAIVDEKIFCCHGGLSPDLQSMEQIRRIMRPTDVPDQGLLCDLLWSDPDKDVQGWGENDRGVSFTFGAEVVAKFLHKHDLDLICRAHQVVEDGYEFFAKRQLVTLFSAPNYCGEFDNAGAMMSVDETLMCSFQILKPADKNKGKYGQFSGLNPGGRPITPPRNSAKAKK
As for `COc1ccc(NC(=O)C2C3CCC(O3)C2C(=O)O)c(OC)c1` (stereo not given), the pIC50 is 4.72.
`N#Cc1c(-c2ccc(Cl)cc2)cc(-c2cccs2)nc1SCC(=O)O` had a pIC50 of 4.66.
Next, `CCOC(=O)c1sc2nc3c(SCC(=O)O)cc(C(=O)c4cc(F)ccc4O)cn3c(=O)c2c1C`: 5.07; `CN1CCN(C(c2ccccn2)c2cc(Cl)c3cccnc3c2O)CC1` (stereo not given): 5.31.
Under `CCn1c2ccccc2c2cc(NC(=O)COC(=O)c3ccc(NC(=O)CC#N)cc3)ccc21` stands 4.42.

(Values after PubChem BioAssay AID652227 (The Scripps Research Institute Molecular Screening Center, 2013).)
